Assay results published in the CheMixHub viscosity set.

Experiment: xn = mol fraction of the nth substance listed
Details: 101 kPa

c1ccncc1 + O
viscosity [mPa·s]
Details | 298.15 K | 303.15 K | 308.15 K | 313.15 K | 318.15 K
x1 = 0.0201 | 1.122 | 0.9952 | 0.8906 | 0.8042 | 0.7251
x1 = 0.0503 | 1.379 | 1.214 | 1.078 | 0.9651 | 0.8727
x1 = 0.0701 | 1.532 | 1.342 | 1.187 | 1.058 | 0.9504
x1 = 0.0999 | 1.725 | 1.505 | 1.325 | 1.175 | 1.05
x1 = 0.1203 | 1.837 | 1.6 | 1.405 | 1.244 | 1.11
x1 = 0.1499 | 1.972 | 1.713 | 1.501 | 1.326 | 1.18
x1 = 0.1701 | 2.05 | 1.778 | 1.556 | 1.373 | 1.22
x1 = 0.1999 | 2.139 | 1.853 | 1.619 | 1.426 | 1.266
x1 = 0.2201 | 2.189 | 1.897 | 1.657 | 1.467 | 1.302
x1 = 0.2502 | 2.235 | 1.934 | 1.688 | 1.485 | 1.316
x1 = 0.2701 | 2.253 | 1.949 | 1.701 | 1.496 | 1.326
x1 = 0.2999 | 2.265 | 1.96 | 1.711 | 1.505 | 1.334
x1 = 0.3198 | 2.26 | 1.957 | 1.709 | 1.504 | 1.333
x1 = 0.35 | 2.235 | 1.937 | 1.694 | 1.492 | 1.324
x1 = 0.4002 | 2.15 | 1.87 | 1.64 | 1.45 | 1.289
x1 = 0.4499 | 2.023 | 1.77 | 1.56 | 1.384 | 1.236
x1 = 0.5002 | 1.871 | 1.648 | 1.461 | 1.304 | –
x1 = 0.5998 | 1.559 | 1.395 | 1.255 | 1.134 | –
x1 = 0.7002 | 1.297 | 1.177 | 1.073 | 0.9812 | –
x1 = 0.8004 | 1.109 | 1.018 | 0.9375 | 0.8659 | –
x1 = 0.8999 | 0.983 | 0.9101 | 0.8448 | 0.7862 | –
